# Like-named read-outs stand apart in the source and are kept apart here.
# What was measured:
# [1] = Test for solubility in water; assay type: physicochemical; details: for solubility: water, thermodynamic from solid
# Experimental: The experiments herein can measure the dissolution profile in water of the compounds according to the present invention.
# To a 25 ml volumetric flask, 25 mg everolimus was added, and diluted with acetonitrile to volume. The mixture was shaken till all the solid dissolved, obtaining 1 mg/mL everolimus solution in acetonitrile.
# 1 mg/mL everolimus solution in acetonitrile was added to a 10 ml volumetric flask, and was diluted with acetonitrile by 2 times, 10 times, 100 times and 1000 times, so as to obtain everolimus solutions in acetonitrile with a concentration of 0.5 mg/mL, 0.1 mg/mL, 0.01 mg/mL and 0.001 mg/mL, respectively.
# Each of the three mixtures was shaken till the solid in the volumetric flask stopped to dissolve. Before analyzed by HPLC, 1 mL of each solution was filtrated via a 0.22 μm filter. The solubility of the compounds was calculated from the standard curve using the peak area of the main peak obtained.
# Based on the same study method, comparisons of the solubility between sirolimus/temsirolimus and the compounds modified by glutathione are carried out, respectively.
# [2] = tested on: human liver cancer cell HepG2; experiment: In vitro activity assay, growth of HepG2 (thymidine incorporation); assay type: cell-based; details: 48 h
# Source text: (§1) The anti-tumor activity and toxicity of the compounds according to the present invention can be assayed through standard operational procedures of pharmacological experiment. The experiments carried out herein can test the inhibitory effect of the compounds according to the present invention on the growth of human liver cancer cell HepG2, lung cancer cell NCI460, prostate cancer cell DU145, prostate cancer cell PC3, and human breast cancer cell MDA-MB-435. The operational procedure used is briefly described below by taking the inhibitory activity assay against human liver cancer cell HepG2 as an example.
# Human liver cancer cell HepG2 grew in the follow medium:
# Preparation of the growth medium: BRL minimum essential medium with Earle Salts (500 mL), with the addition of the following agents:
# (§2) The operational procedure for the assay is as follows:
# (§3) 1. Cells after being trypsinized were inoculated in 96-well plates at a concentration of 10^4 cells/well, and allowed to grow in a medium with a final volume of 200 μL. The 96-well plates after inoculation are allowed to stand for 24 hours at 37° C., in order to allow the cells to adhere to the surface of the wells.
# (§4) 2. The medium was removed by carefully pipetting without disturbing the cell monolayer. 200 μL Fresh medium was added into each well. It is arranged to make it possible to collect samples from enough wells to run the experiments in triplicate.
# (§5) 3. The compounds to be tested according to the present invention were dissolved into 10 μL phosphate buffered solution (PBS) and incubated for 48 h at 37° C.
# (§6) 4. In the last 6 h of incubation, cells in each well of the 96-well plates were labeled by 1 microcurie T thymidine (New England Nuclear thymidine), by adding 10 μL PBS containing 1 microcurie T thymidine (which was added into the PBS on the day of collecting the samples for test). The 96-well plates were then returned to the incubator and incubated for the last 6 h.
# (§7) 5. Without disturbing the cell monolayer, the radioactive medium was removed by pipetting. Then 50 μL of BRL 10×trypsin was added to each well, followed by incubation at 37° C. for 10 minutes or until the cell monolayer was detached from the bottom (or the wall) of each well. Samples were collected on glass-fiber diskettes using a Skatron 96-well cell harvester. Cells depositing on the glass-fiber diskettes were counted in a Wallac Betaplate counter.
# lung cancer cell NCI460 = experiment: In vitro activity assay, growth of NCI460; assay type: cell-based; details: NCI-460, 48 h
# Source text: as §1, §2, §3, §4, §5, §6, §7
# [3] = tested on: prostate cancer cell DU145; experiment: In vitro activity assay, growth of DU145; assay type: cell-based; details: Homo sapiens; DU-145; 48 h
# Source text: as §1, §2, §3, §4, §5, §6, §7
# prostate cancer cell PC3 = experiment: In vitro activity assay, growth of PC3; assay type: cell-based; details: 48 h
# Source text: as §1, §2, §3, §4, §5, §6, §7
# [4] = tested on: human breast cancer cell MDA-MB-435; experiment: In vitro activity assay, growth of MDA-MB-435; assay type: cell-based; details: 48 h
# Source text: as §1, §2, §3, §4, §5, §6, §7
SMILES,solubility [1] [µg/mL],IC50 [2] [µM],IC50 [3] [µM],IC50 (prostate cancer cell PC3) [µM],IC50 [4] [µM],"solubility ([1]; pure water, Table 2, compounds I-5, I-6, I-7 converted to temsirolimus, read-out: Solubility in water) [µg/mL]",increase of solubility in water as compared with sirolimus [1],IC50 (lung cancer cell NCI460) [µM],increase of solubility in water as compared with temsirolimus [1]
CO[C@H]1C[C@@H]2CC[C@@H](C)[C@@](O)(O2)C(=O)C(=O)N2CCCC[C@H]2C(=O)OC([C@H](C)C[C@@H]2CC[C@@H](OC(=O)CSC[C@H](NC(=O)CC[C@H](N)C(=O)O)C(=O)NCC(=O)O)[C@H](OC)C2)CC(=O)[C@H](C)/C=C(\C)[C@@H](O)[C@@H](OC)C(=O)[C@H](C)C[C@@H](C)\C=C/C=C/C=C/1C (stereo partly shown) [Compound I-3],470,35.188 ± 0.007,62.511 ± 0.01,31.396 ± 0.008,63.633 ± 0.015,–,at least 470 times,82.328 ± 0.011,–
CO[C@H]1C[C@@H]2CC[C@@H](C)[C@@](O)(O2)C(=O)C(=O)N2CCCC[C@H]2C(=O)OC([C@H](C)C[C@@H]2CC[C@@H](OC(=O)C(C)(CO)COC(=O)CSC[C@H](NC(=O)CC[C@H](N)C(=O)O)C(=O)NCC(=O)O)[C@H](OC)C2)CC(=O)[C@H](C)/C=C(\C)[C@@H](O)[C@@H](OC)C(=O)[C@H](C)C[C@@H](C)\C=C/C=C/C=C/1C (stereo partly shown) [Compound I-5],580,50.213 ± 0.01,60.813 ± 0.011,38.396 ± 0.008,70.761 ± 0.009,–,–,80.53 ± 0.013,at least 580 times
"CO[C@H]1C[C@@H]2CC[C@@H](C)[C@@](O)(O2)C(=O)C(=O)N2CCCC[C@H]2C(=O)O[C@H]([C@H](C)C[C@@H]2CC[C@@H](O)[C@H](OC)C2)CC(=O)[C@H](C)/C=C(\C)[C@@H](O)[C@@H](OC)C(=O)[C@H](C)C[C@H](C)/C=C/C=C/C=C/1C [Sirolimus, reference compound]",< 1,66.254 ± 0.007,68.52 ± 0.009,42.371 ± 0.009,68.57 ± 0.007,–,–,101.36 ± 0.013,–
"CO[C@H]1C[C@@H]2CC[C@@H](C)[C@@](O)(O2)C(=O)C(=O)N2CCCC[C@H]2C(=O)O[C@H]([C@H](C)C[C@@H]2CC[C@@H](OC(=O)C(C)(CO)CO)[C@H](OC)C2)CC(=O)[C@H](C)/C=C(\C)[C@@H](O)[C@@H](OC)C(=O)[C@H](C)C[C@H](C)/C=C/C=C/C=C/1C [Temsirolimus, reference compound]",–,60.337 ± 0.01,65.361 ± 0.015,47.319 ± 0.005,77.31 ± 0.005,~1,–,113.25 ± 0.011,–

# More lines, main results first:
solubility [1] [µg/mL],IC50 [2] [µM],IC50 [3] [µM],IC50 (prostate cancer cell PC3) [µM],IC50 [4] [µM],"solubility ([1]; pure water, Table 2, compounds I-5, I-6, I-7 converted to temsirolimus, read-out: Solubility in water) [µg/mL]",SMILES,increase of solubility in water as compared with sirolimus [1],IC50 (lung cancer cell NCI460) [µM],increase of solubility in water as compared with temsirolimus [1]
610,73.402 ± 0.007,93.277 ± 0.011,51.413 ± 0.005,73.283 ± 0.012,–,CO[C@H]1C[C@@H]2CC[C@@H](C)[C@@](O)(O2)C(=O)C(=O)N2CCCC[C@H]2C(=O)OC([C@H](C)C[C@@H]2CC[C@@H](OC(=O)CSC[C@H](NC(=O)CC[C@H](N)C(=O)O)C(=O)NCC(=O)O)[C@H](OC)C2)CC(=O)[C@H](C)/C=C(\C)[C@@H](OC(=O)CSC[C@H](NC(=O)CC[C@H](N)C(=O)O)C(=O)NCC(=O)O)[C@@H](OC)C(=O)[C@H](C)C[C@@H](C)\C=C/C=C/C=C/1C (stereo partly shown) [Compound I-4],≥ 610 times,122.8 ± 0.017,–
830,76.703 ± 0.012,82.51 ± 0.015,60.492 ± 0.01,81.31 ± 0.008,–,CO[C@H]1C[C@@H]2CC[C@@H](C)[C@@](O)(O2)C(=O)C(=O)N2CCCC[C@H]2C(=O)OC([C@H](C)C[C@@H]2CC[C@@H](OC(=O)C(C)(COC(=O)CSC[C@H](NC(=O)CC[C@H](N)C(=O)O)C(=O)NCC(=O)O)COC(=O)CSC[C@H](NC(=O)CC[C@H](N)C(=O)O)C(=O)NCC(=O)O)[C@H](OC)C2)CC(=O)[C@H](C)/C=C(\C)[C@@H](OC(=O)CSC[C@H](NC(=O)CC[C@H](N)C(=O)O)C(=O)NCC(=O)O)[C@@H](OC)C(=O)[C@H](C)C[C@@H](C)\C=C/C=C/C=C/1C (stereo partly shown) [Compound I-7],–,131.26 ± 0.01,≥ 830 times

# Source: patent publication US10442835B2, “Water-soluble rapamycin derivatives” (Zhejiang Hisun Pharmaceutical Co., Ltd., priority 2016, dated 2019)
